Tested on: S. Aureus in osteoblast cells
Experiment: Confocal microscopy live/dead staining (SYTO 9 / propidium iodide) of infected osteoblasts
Type: cell-based, Staphylococcus aureus
Conditions: gentamycine alone, FIG. 6C
Procedure: Confocal microscopy provided the evidence for intracellular bacteria killing. Osteoblast cells were cultured on 18 mm cover slips in a six well plate. Cells were treated with nanoparticles 1 ug/mL. The stain used was from invitrogen (L-7002) with two types of Dyes, SYTO 9 dye, 3,34 mM (Component A), 300 μL solution in DMSO and Propidium iodide PI, 20 mM (Component B), 300 μL solution in DMSO. The plates were incubated in the dark for 15 minutes after which the coverslips with growing co-cultured cells were gently removed and were placed on a glass slide containing 50 μL of 10%A glycerol with cells lying between the cover slip and the glass slide. The slide was observed under a confocal microscope using bandpass filters for red and green color. Images were obtained at different working distances and were superimposed by an Olympus CCD camera software to get images with dual color. […] Gentamycine is an antibiotic that is not capable of penetrating the bone cells membrane.

gentamycine
dead bacteria (red) in infected osteoblast cells, confocal image: no significant numbers of dead bacteria

— US20130177610A1, “NANO-METALLIC ALLOY DELIVERY SYSTEM FOR TREATMENT OF INFECTED CELLS AND LEGIONS” (UNIVERSITY OF NORTH CAROLINA AT GREENSBORO, priority 2008, published 2013)
